Experiment [1] concerns human MCF-7 breast cancer xenograft. Description: Orthotopic human MCF-7 breast cancer xenograft model. The experiment is classed as in vivo, mouse. The settings on record: MCF-7 orthotopic, 10 mg/kg. The procedure:
Human MCF-7 breast cancer cells were maintained at 37° C. in a 5% CO2 incubator in Optimem medium containing glutamax, 2.4/L sodium bicarbonate, Hepes and 5% fetal bovine serum. Orthotopic xenografts were established by injecting 5×10^6 cells per mouse (suspended in 50% matrigel) into the mammary fat pad on the right flank of 4 to 6-week-old athymic nu/nu mice. Estrogen pellets (0.36 mg) were placed under the skin of the left flank 1-2 days before cell injection. […] Paclitaxel was administered intravenously at 10 mg per kilogram body weight. Caliper measurements were used to calculate tumor volumes using the formula: tumor volume=π÷6(length×width×width) • for tumors grown in mice.
In general terms: A xenograft is tissue or cells of one species grown in another, often human tumour cells in immunodeficient mice.

A further experiment relates to BT-474 xenografts. Description: Orthotopic human BT-474 breast cancer xenograft model. The settings on record: BT-474 orthotopic, antibodies 30 mg/kg, lapatinib 100 mg/kg. The experiment is classed as in vivo, mouse. As for the experimental part: Orthotopic xenografts were established by injecting 1×10^7 cells per mouse (suspended in 50% matrigel) into the mammary fat pad on the right flank of 4 to 6-week-old athymic nu/nu mice. Estrogen pellets (0.36 mg) were placed under the skin of the left flank 1-2 days before cell injection. […] Lapatinib was administered by oral gavaging at 100 mg per kilogram body weight. Caliper measurements were used to calculate tumor volumes using the formula: tumor volume=π÷6(length×width×width) • for tumors grown in mice.

For the next experiment, the system named is MDA-MB-361 xenografts. The experiment is described as follows: Orthotopic human MDA-MB-361 breast cancer xenograft model. The experiment is classed as in vivo, mouse. The settings on record: trastuzumab and rhuMAb 2C4 10 mg/kg, lapatinib 100 mg/kg twice daily, 2C2-YTE 30 mg/kg. As for the experimental part: Orthotopic xenografts were established by injecting 5×10^6 cells per mouse (suspended in 50% matrigel) into the mammary fat pad on the right flank of 4 to 6-week-old athymic nu/nu mice. Estrogen pellets (0.36 mg) were placed under the skin of the left flank 1-2 days before cell injection. […] Lapatinib was administered by oral gavaging at 100 mg per kilogram body weight. Caliper measurements were used to calculate tumor volumes using the formula: tumor volume=π÷6(length×width×width) • for tumors grown in mice.

For experiment [2], the system named is HER3, pHER3 and pAKT in SW620, SW480, Colo205, LOVO, HCT15, Caco-2. Description: HRG-stimulated HER3 signaling in CRC tumor cell lines (Western). The experiment is classed as cell-based, human. The settings on record: antibodies 10 μg/mL, gefitinib 5 μM, HRG 50 ng/mL. As for the experimental part: In the presence of the HER3 ligand heregulin (HRG), HER3 heterodimerizes with EGFR or HER2, which leads to phosphorylation of HER3 and transmission of an oncogenic signal via phosphoinositide 3 kinase (PI3K) and protein kinase B (PKB), also known as AKT. A collection of CRC models were characterized to determine which receptor tyrosine kinase, EGFR or HER2, is the major driver of signaling through HER3. […] Briefly, cells were seeded into 24-well plates at a density of 1.5×10^5 cells per well. […] After 5-6 hours of incubation at 37° C., HRG was added at 50 ng/mL into one set of cells for 15 minutes at 37° C. All cells were then washed with cold PBS and lysed by the addition of 60 μL of 2×SDS (sodium dodecyl sulfate) sample buffer (Invitrogen). Lysates were transferred to 1.5 mL tubes and boiled for 5 minutes followed by chilling on ice for 2 minutes. Equal volumes (20 μL) of protein samples were resolved in NuPAGE Novex Bis-Tris gels (Invitrogen) before transfer to polyvinylidene fluoride (PVDF) membranes (Invitrogen). […] After washing, protein bands were detected on X-ray film by using SuperSignal West Pico Chemiluminescent Substrate (Pierce/Thermo Scientific).

Experiment [3] relates to JIMT-1 breast cancer xenografts. Description: Orthotopic human JIMT-1 breast cancer xenograft model. The experiment is classed as in vivo, mouse. The procedure: Orthotopic xenografts were established by injecting 5×10^6 cells per mouse (suspended in 50% matrigel) into the mammary fat pad on the right flank of 4 to 6-week-old athymic nu/nu mice. […] Treatment with antibodies were administered starting at day 8 post-implantation of JIMT-1 cells. […]

The mark [4] stands for this setting: 10 mpk (each), day 32 post-implantation of JIMT-1 cells, vs control IgG1.

Regarding `CC(=O)O[C@H]1C(=O)[C@@]2(C)[C@H]([C@H](OC(=O)c3ccccc3)[C@]3(O)C[C@H](OC(=O)[C@H](O)[C@@H](NC(=O)c4ccccc4)c4ccccc4)C(C)=C1C3(C)C)[C@]1(OC(C)=O)CO[C@@H]1C[C@@H]2O` [Paclitaxel, paclitaxel, reference compound], the “anti-tumor efficacy (in words)” value in experiment [1] is reported as “clear anti-tumor efficacy”.
For `CS(=O)(=O)CCNCc1ccc(-c2ccc3ncnc(Nc4ccc(OCc5cccc(F)c5)c(Cl)c4)c3c2)o1` [lapatinib, reference compound], the “anti-tumor efficacy (in words)” value is given as “tumor stasis” in the experiment on BT-474 xenografts and “showed anti-tumor efficacy” in the experiment on MDA-MB-361 xenografts.
On to `COc1cc2ncnc(Nc3ccc(F)c(Cl)c3)c2cc1OCCCN1CCOCC1` [gefitinib], for which the “effect on HRG ligand-dependent signaling (HER3, pHER3, pAKT; in words)” value in experiment [2] is listed as “no effect”.
For the compound “pertuzumab [RhuMAb 2C4, reference compound]”, in experiment [3] (setting [4]), the “% TGI” value was 13.64% and the “% dTGI” value worked out at 17.42%. The “anti-tumor efficacy (in words)” value in experiment [3] (JIMT-1, 10 mg/kg (each)) was “did not result in any significant reduction”. For the same compound, the “effect on HRG ligand-dependent signaling (HER3, pHER3, pAKT; in words)” value in experiment [2] was “inhibit HRG ligand-dependent signaling”. Also, in the experiment on MDA-MB-361 xenografts, the “anti-tumor efficacy (in words)” value was “showed anti-tumor efficacy”.
